The results in this text go back to article PMC6274076, “Discovery of Uracil Derivatives as Potent Inhibitors of Fatty Acid Amide Hydrolase” (Molecules, 2016).

Data set [1] addresses T1, recombinant rat FAAH (rFAAH) (Rattus norvegicus, UniProt P97612).
T1 construct: expressed in transfected cells; host or cells: HEK293-rFAAH cells (homogenate supernatant)
T1 sequence (P97612 1-579): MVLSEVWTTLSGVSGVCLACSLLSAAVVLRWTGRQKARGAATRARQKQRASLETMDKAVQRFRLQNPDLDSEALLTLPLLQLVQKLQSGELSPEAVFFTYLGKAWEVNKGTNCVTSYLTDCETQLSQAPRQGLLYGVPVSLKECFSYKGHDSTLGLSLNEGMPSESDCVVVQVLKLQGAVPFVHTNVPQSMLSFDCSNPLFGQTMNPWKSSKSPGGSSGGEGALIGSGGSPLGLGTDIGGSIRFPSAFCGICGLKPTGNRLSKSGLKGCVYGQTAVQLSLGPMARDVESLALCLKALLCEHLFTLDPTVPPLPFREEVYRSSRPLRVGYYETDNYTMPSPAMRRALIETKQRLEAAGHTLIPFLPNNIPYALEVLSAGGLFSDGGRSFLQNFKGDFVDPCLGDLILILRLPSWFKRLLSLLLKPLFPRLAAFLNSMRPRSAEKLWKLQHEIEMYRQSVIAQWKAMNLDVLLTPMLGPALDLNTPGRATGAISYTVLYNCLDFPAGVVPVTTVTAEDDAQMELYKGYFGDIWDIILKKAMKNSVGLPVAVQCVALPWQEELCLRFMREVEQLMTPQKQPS
Put plainly: FAAH enzyme activity assay (AEA hydrolysis, HPLC-MS/MS). The class given is biochemical. The following applies: for FAAH inhibitory activity (in words): rFAAH enzyme assay; for fold decrease in FAAH inhibitory potency vs. compound 1: compared with parent compound 1. How it is done:
The substituted 2,4-dioxopyrimidine-1-carboxamides and the related analogues described above were subjected to in vitro biological evaluation toward recombinant rat FAAH derived from HEK293-rFAAH cell. Enzyme assays were performed at 37 °C by incubating 30 µg of rFAAH protein with 25 μM anandamide as substrate in Tris-HCl buffer containing fatty acid-free BSA (0.05%). When the reactions were terminated, 1 nmol heptadecanoic acid (17:0 FFA) was added as an internal standard. […] The hydrolyzate of AEA (arachidonic acid), together with heptadecanoic acid was detected in HPLC/MS/MS to estimate the potency of rFAAH inhibition according to the methods previously described.
The inhibition effects of uracil derivatives toward recombinant rat FAAH (rFAAH) were assessed by enzyme activity assay. HEK293-rFAAH cells were harvested, washed with PBS, sonicated in 20 mM Tris-HCl (pH 7.5) containing 0.32 M sucrose, and centrifuged at 800× g for 15 min at 4 °C. The supernatants were collected and protein concentrations were measured by BCA protein assay kit (Pierce, Shanghai, China). FAAH proteins (30 μg) were incubated at 37 °C for 30 min in Tris buffer (50 mM, pH = 8.0) containing fatty acid-free BSA (0.05%) and 25 μM AEA (Sigma-Aldrich, Shanghai, China) as substrate. The above reactions were stopped by adding 200 μL methanol containing 1 nmol heptadecanoic acid (17:0 FFA) as internal standard. The reaction mixture was extracted with 4 mL chloroform and then vortex for 1 min. Lipid layer was separated by centrifugation at 3000× g for 10 min and then transferred to a clean 10 mL V-bottom glass tube and dried under nitrogen (N2) flow. After redissolved with 1 mL CHCl3, the lipid solution went through the solid-phase extraction, and was eluted by methanol/chloroform (v/v, 1/9). The elution containing FAEs and FFAs was dried under N2, and reconstituted in 100 μL methanol for HPLC-MS/MS analysis.
Samples were detected by an ABI 3200 Q-Trap mass spectrometer (Applied Biosystems/MDS Sciex) equipped with 1100-LC system (Agilent, Shanghai, China). The mobile phase for FFAs detection was consisted of MeOH and ultra-pure H2O (pH = 7.4, each containing 0.25% acetic acid and 5 mmol/L ammonium acetate), and the elution condition was 95% methanol keeping for 3 min at a flow rate of 1.0 mL·min^−^1. The column temperature was kept at 40 °C. Ion detection was monitored by ESI negative mode. The molecular ions were monitored at m/z 303 for AA, and m/z 269 for C17:0 FFA. Inhibition curves and IC50 values of each compounds was calculated by GraphPad Prism (version 5.01, GraphPad Software Inc., San Diego, CA, USA).

The mark [2] stands for this setting: rFAAH protein 30 μg from HEK293-rFAAH cells, 25 μM anandamide, 37 °C, 30 min, Tris buffer pH 8.0, read-out: IC50 of FAAH Inhibition.
Where [3] appears, read: as stated in abstract, read-out: IC50 (FAAH inhibition).

“And” between values parts separate entries of the source, which are not always exact repeats. Identical values can stand only once. Like-named read-outs stand apart in the source and are kept apart here.

By IC50 is commonly meant the midpoint of a concentration-inhibition curve. On to `CCCCCCNC(=O)n1ccc(=O)[nH]c1=O` [Compound 1, N-Hexyl-2,4-dioxo-pyrimidine-1-carboxamide], for which the 50% inhibitory concentration (IC50) in data set [1] (setting [2]) stood at 110 ± 30 nM.

Turning to `CCCCCCNC(=O)N1CCC(=O)NC1=O` [Compound 2, N-Hexyl-2,4-dioxotetrahydropyrimidine-1-carboxamide], in data set [1], the “FAAH inhibitory activity (in words)” value is listed as “no inhibitory activity”. Besides, the half-maximal inhibitory concentration (IC50) in data set [1] (setting [2]) is > 10000 nM.

As for `CCCCCCNC(=O)N1CCCNC1=O` [Compound 3, N-Hexyl-2-oxotetrahydropyrimidine-1-carboxamide], the “FAAH inhibitory activity (in words)” value in data set [1] is “loss of FAAH inhibitory activities”. For the same compound, in data set [1] (setting [2]), the IC50 is > 10000 nM.

For `CCCCCCNC(=O)n1ccc(=O)n(C)c1=O` [Compound 4, N-Hexyl-3-methyl-2,4-dioxopyrimidine-1-carboxamide], the “fold decrease in FAAH inhibitory potency vs. compound 1” value in data set [1] is 8- to 10 fold. Also, in data set [1] (setting [2]), the IC50 came out at 860 ± 80 nM.

In the case of `CCCCCCNC(=O)n1cc(C)c(=O)[nH]c1=O` [Compound 5, N-Hexyl-5-methyl-2,4-dioxopyrimidine-1-carboxamide], the “fold decrease in FAAH inhibitory potency vs. compound 1” value in data set [1] is recorded as 2- to 3 fold. Also, the IC50 in data set [1] (setting [2]) stood at 250 ± 30 nM.

As for `CCCCCCNC(=O)n1c(C)cc(=O)[nH]c1=O` [Compound 6, N-Hexyl-6-methyl-2,4-dioxopyrimidine-1-carboxamide], the “fold decrease in FAAH inhibitory potency vs. compound 1” value in data set [1] is 8- to 10 fold. The half-maximal inhibitory concentration (IC50) in data set [1] (setting [2]) turned out to be 1270 ± 210 nM.

Regarding `O=C(NCCc1ccccc1)n1ccc(=O)[nH]c1=O` [Compound 7, N-(2-Phenylethyl)-2,4-dioxopyrimidine-1-carboxamide], the “fold decrease in FAAH inhibitory potency vs. compound 1” value in data set [1] was determined as 3 fold. Besides, the IC50 in data set [1] (setting [2]) was determined as 300 ± 70 nM.

For `Cc1cn(C(=O)NCCc2ccccc2)c(=O)[nH]c1=O` [Compound 8, 5-Methyl-N-(2-phenylethyl)-2,4-dioxopyrimidine-1-carboxamide], the IC50 in data set [1] (setting [2]) is 1070 ± 140 nM.

Consider `COc1cn(C(=O)NCCc2ccccc2)c(=O)[nH]c1=O` [Compound 9, 5-Methoxy-N-(2-phenylethyl)-2,4-dioxopyrimidine-1-carboxamide], for which the IC50 in data set [1] (setting [2]) is 530 nM and 531 nM.

In the case of `O=C(NCCc1ccccc1)n1cc(F)c(=O)[nH]c1=O` [Compound 10, 5-Fluoro-N-(2-phenylethyl)-2,4-dioxopyrimidine-1-carboxamide], the concentration for half-maximal inhibition (IC50) in data set [1] (setting [2]) was determined as 98 ± 10 nM.

For the compound `O=C(NCCc1ccccc1)n1cc(C(F)(F)F)c(=O)[nH]c1=O` [Compound 11, N-(2-Phenylethyl)-5-trifluoromethyl-2,4-dioxopyrimidine-1-carboxamide], the concentration for half-maximal inhibition (IC50) in data set [1] (setting [3]) amounted to 21 nM; in data set [1] (setting [2]), 21 ± 4 nM.

Broadly, the melting point is the temperature, or range, at which the solid turns liquid. In turn, `O=C(NCc1ccc2ccccc2c1)n1ccc(=O)[nH]c1=O` [Compound 12] had a melting point of 84 to 84.6 °C.

`O=C(NCc1ccc(-c2ccccc2)cc1)n1ccc(=O)[nH]c1=O` [Compound 14, N-[2-(4-Biphenyl)methyl]-2,4-dioxopyrimidine-1-carboxamide]: the IC50 in data set [1] (setting [3]) stood at 53 nM; in data set [1] (setting [2]), 53 ± 6 nM.

As for `O=C(NCc1ccc(-c2ccccc2)cc1)n1cc(F)c(=O)[nH]c1=O` [Compound 15, N-[2-(4-biphenyl)methyl]-5-fluoro-2,4-dioxo-pyrimidine-1-carboxamide], the “fold less potent vs. compound 14” value in data set [1] (compared with compound 14) turned out to be 2 fold. The IC50 in data set [1] (setting [2]) was 100 ± 10 nM.

Regarding `O=C(Nc1cn(C(=O)NCCc2ccccc2)c(=O)[nH]c1=O)OCc1ccccc1` [Compound 16, Benzyl (2,4-dioxo-1-{[(2-phenylethyl)amino]carbonyl}-1,2,3,4-tetrahydro-5-pyrimidinyl)carbamate (2H)-carboxamide], the “increase of FAAH inhibitory potency vs. compound 17” value in data set [1] (compared with compound 17) is “about 10 times”. Further, the half-maximal inhibitory concentration (IC50) in data set [1] (setting [2]) was determined as 120 ± 30 nM.

Consider `Nc1cn(C(=O)NCCc2ccccc2)c(=O)[nH]c1=O` [Compound 17, 5-Amino-N-(2-phenylethyl)-2,4-dioxopyrimidine-1-carboxamide], for which the IC50 in data set [1] (setting [2]) stood at 1330 ± 130 nM.

As for `O=C(NCCc1ccccc1)n1cc(O)c(=O)[nH]c1=O` [Compound 18, 5-hydroxy-N-(2-phenylethyl)-2,4-dioxopyrimidine-1-carboxamide], the IC50 in data set [1] (setting [2]) was 540 ± 70 nM.

Turning to `CCCCCCCn1ccc(=O)[nH]c1=O` [Compound 19, 1-Heptyl-2,4-dioxopyrimidine], the “FAAH inhibitory activity (in words)” value in data set [1] was “not inhibited at all”. In addition, in data set [1] (setting [2]), the concentration for half-maximal inhibition (IC50) was > 100000 nM.

As for `CCCCCCCn1cc(F)c(=O)[nH]c1=O` [Compound 20, 5-Fluoro-1-heptyl-2,4-dioxopyrimidine], the “FAAH inhibitory activity (in words)” value in data set [1] was “not inhibited at all”. In data set [1] (setting [2]), the IC50 is > 100000 nM.

Regarding `CCCCCCNC(=O)Cn1cc(F)c(=O)[nH]c1=O` [Compound 21, 2-[5-Fluoro-2,4-dioxopyrimidinyl]-N-hexylacetamide], the “FAAH inhibitory activity (in words)” value in data set [1] was “total loss of the FAAH inhibitory activity”. In addition, the IC50 in data set [1] (setting [2]) was > 100000 nM.
